{"source": "paper PMC9459403", "about": "“New inhibitors of cathepsin V impair tumor cell proliferation and elastin degradation and increase immune cell cytotoxicity” (Computational and Structural Biotechnology Journal, 2022)", "key": {"[1]": {"tested_on": "NK-92 effector cells on target K-562 cells", "assay": "Calcein AM release assay (cytotoxicity)", "type": "cell-based, human", "conditions": "effector cells treated 10 µM, 6 h", "method": "(§1) Effector cells (NK-92 or TALL-104; 1 × 10^6/ml) were treated with E-64d (10 µM) or compound 7 (10 µM) for 6 h. NK-92 cells were pre-treated with 1000 IU IL2/mL overnight prior to the addition of inhibitors. Effector cells were added to a 96-well U-bottom plate to achieve a selected effector-to-target ratio (E:T). Target K-562 cells were labelled with 15 µM Calcein-AM (Sigma) in serum-free RPMI 1640 medium for 30 min at 37 °C. Cells were then washed twice and resuspended in complete RPMI 1640 medium. Target cells (n = 5000) were added to the effectors. The plate was centrifuged at 200 × g for 1 min and incubated at 37 °C and 5 % CO2 for 4 h. After incubation, the plate was centrifuged at 700 × g for 5 min. The supernatant (50 µL) was transferred to a new microtiter plate to measure the fluorescence of the released Calcein-AM with a Tecan M1000 microtiter plate reader using 496 nm excitation and 516 nm emission filters. The percentage of cytotoxicity was calculated as follows: 100(test release-spontaneous release)/(total release-spontaneous release). Spontaneous release was measured in wells containing only target cells. For total release, 2 % Triton X-100 was added to the wells to achieve lysis of target cells. Lytic units (LU) were calculated using the inverse of the number of effector cells needed to lyse 30 % of the target cells multiplied by 100."}, "[2]": {"tested_on": "TALL-104 effector cells on target K-562 cells", "assay": "Calcein AM release assay (cytotoxicity)", "type": "cell-based, human", "conditions": "effector cells treated 10 µM, 6 h", "method": "as §1"}, "Cathepsin V [3]": {"molecular_target": "T1, Cathepsin V (Homo sapiens, UniProt O60911)", "T1 construct": "made in house; host or cells: Pichia pastoris", "T1 sequence (O60911 114-334)": "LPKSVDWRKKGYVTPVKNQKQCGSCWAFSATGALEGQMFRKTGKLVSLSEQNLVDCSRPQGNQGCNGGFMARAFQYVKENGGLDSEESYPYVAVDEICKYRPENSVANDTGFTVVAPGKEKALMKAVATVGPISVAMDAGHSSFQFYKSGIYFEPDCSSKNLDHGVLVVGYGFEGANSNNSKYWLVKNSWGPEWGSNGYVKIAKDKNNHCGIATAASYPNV", "assay": "Determination of binding reversibility (dilution method)", "type": "biochemical", "conditions": "inhibitor 100 μM, cathepsin V 500 ng/ml", "method": "Binding reversibility was determined according to the dilution method, which measures the recovery of enzymatic activity after rapid dilution of the enzyme-inhibitor complex. Cathepsin V (500 ng/ml) was incubated in the assay buffer with the inhibitor (100 μM). Half of the reaction mixture was immediately diluted 100-fold with the assay buffer and added to the wells of a black microplate containing 5 μL of substrate (at a final concentration of 2 μM), and the activity was measured. The other half of the reaction mixture was incubated for 2 h before it was diluted 100-fold, and then the activity was measured. The assay was performed in triplicates and repeated at least two times."}, "MCF7 cells": {"tested_on": "MCF7 cells", "assay": "Proliferation assay (CFSE-labeled cells, flow cytometry)", "type": "cell-based, human", "conditions": "72 h", "method": "To assess the effect of cathepsin V inhibitors on cell proliferation, MCF7 cells were fluorescently labeled with carboxyfluorescein succinimidyl ester (CFSE; ImmunoChemistry Technologies, Bloomington, MN, USA) in PBS for 15 min at room temperature according to the manufacturer’s instructions. Cells were washed with PBS, resuspended in complete medium, seeded (at 4 × 10^4 cells/well) into 24-well plates, and allowed to adhere overnight. Cells were then treated with the following inhibitors: compound 7 (10 μM), E-64d (10 μM), CLIK-148 (1 μM), LHVS (10 nM), pepstatin (20 μM), their combinations, or DMSO (0.1 %) in 500 μL of medium for 72 h at 37 °C. To prepare cells for flow cytometry, cells were detached and transferred to round-bottomed polystyrene tubes and washed with PBS. Before measurement, 7-aminoactinomycin D (7-AAD; ImmunoChemistry Technologies, Bloomington, MN, USA) was added according to the manufacturer’s instructions to exclude dead cells. Therefore, the green fluorescence arising from CFSE was monitored only for viable cells. The measurement was performed using a FACSCalibur instrument (BD Biosciences, San Jose, CA, USA)."}, "[4]": {"molecular_target": "T2, human recombinant cathepsin L (Homo sapiens, UniProt P07711)", "T2 construct": "made in house; host or cells: Escherichia coli", "T2 sequence (P07711 114-333)": "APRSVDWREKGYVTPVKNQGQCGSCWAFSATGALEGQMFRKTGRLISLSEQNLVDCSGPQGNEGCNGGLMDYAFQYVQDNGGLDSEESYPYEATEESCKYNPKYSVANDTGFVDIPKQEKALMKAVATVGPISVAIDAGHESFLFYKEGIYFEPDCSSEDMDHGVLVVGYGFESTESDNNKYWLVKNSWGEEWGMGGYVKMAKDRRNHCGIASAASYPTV", "assay": "Determination of Ki values and mode of inhibition", "type": "biochemical", "conditions": "mean ± SD (n = 2)", "method": "(§2) Human recombinant cathepsin V was expressed in Pichia Pastoris, and human recombinant cathepsin L was expressed in Escherichia coli, as reported, [51]. To determine the activities of cathepsins V and L, 100 mM acetate buffer (pH 5.5), containing 0.1 % PEG 8000 (Sigma-Aldrich, St. Louis, MO, USA), 5 mM cysteine, and 1.5 mM EDTA was used. Prior to the assay, the enzyme was activated in the assay buffer for 5 min at 37 °C.\n(§3) Inhibition constants were calculated from reaction velocities measured at three substrate concentrations (0.5, 1, and 4 μM) in the presence of inhibitors at seven concentrations (0, 20, 40, 60, 80, 100, and 200 µM). The reaction was initiated by adding 90 μL of enzyme at final concentrations of 2.5 ng/mL and 0.02 nM for cathepsins V and L, respectively, to the wells of a black microtiter plate containing 5 μL of substrate and 5 μL of inhibitor. To evaluate cathepsin V and L activity, the substrate Z-Phe-Arg-AMC was used. The formation of the fluorescent degradation products was monitored as described above. All assay mixtures contained 5 % (v/v) DMSO. All measurements were performed in duplicates and repeated at least twice. The SigmaPlot® 12, Enzyme Kinetics Module™ 1.3 was used to calculate Ki values."}, "Cathepsin V [5]": {"molecular_target": "T1, Cathepsin V", "assay": "Determination of Ki values and mode of inhibition", "type": "biochemical", "method": "as §2, §3"}, "[6]": {"molecular_target": "T2, human recombinant cathepsin L", "assay": "Determination of relative inhibition, substrate Z-Phe-Arg-AMC", "type": "biochemical", "conditions": "inhibitor 50 μM; substrate 2 μM; mean ± SD (n = 2); read-out: Cathepsin L Ri (%) relative inhibition", "method": "as §2\n(§4) The effect of the inhibitors on cathepsin V and L activity was determined using the substrate Z-Phe-Arg-AMC (Bachem, Bubendorf, Switzerland). The reaction was initiated by adding 90 μL of the activated enzyme (final concentration 2.5 ng/mL and 0.02 nM for cathepsins V and L, respectively) to the wells of a black microtiter plate containing 5 μL of substrate (with a final concentration 2 μM) and 5 μL of inhibitor (with a final concentration of 50 μM). The formation of fluorescent degradation products during the reaction was monitored continuously at 460 nm ± 10 nm with excitation at 380 nm ± 20 nm at 37 °C on a Tecan Infinite M1000 (Mannedorf, Switzerland) spectrofluorometer. All assay mixtures contained 5 % (v/v) DMSO. To prevent false-positive inhibition due to the formation of compound aggregates, 0.01 % Triton X-100 was used. All measurements were performed in triplicate and repeated at least twice. Relative inhibition was calculated using the following equation: relative inhibition (%) = 100(1- vi/vo), where vi and vo denote the reaction velocities in the presence and absence of the inhibitor, respectively."}, "Cathepsin V [7]": {"molecular_target": "T1, Cathepsin V", "assay": "Determination of relative inhibition, substrate Z-Phe-Arg-AMC", "type": "biochemical", "conditions": "inhibitor 50 μM; substrate 2 μM; mean ± SD (n = 2); read-out: Cathepsin V Ri (%) relative inhibition", "method": "as §2, §4"}}, "note": "Entries after “also recorded” stand apart in the source; their conditions may differ.", "data": [{"smiles": "O=C(NCc1cccc2ccccc12)NCC1CCN(C(=O)Oc2ccccc2)CC1", "note": "[Compound 7, Phenyl 4-((3-(naphthalen-1-ylmethyl)ureido)methyl)piperidine-1-carboxylate]", "values": [{"measurement": "cytotoxicity of NK-92 cells (target cell killing)", "setting": "[1]", "value": "significantly increased"}, {"measurement": "cytotoxicity of TALL-104 cells (target cell killing)", "setting": "[2]", "value": "significantly increased"}, {"measurement": "binding reversibility: cathepsin V activity after 2 h incubation and 100-fold rapid dilution", "setting": "Cathepsin V [3]", "value": "reversible; also recorded: restored"}, {"measurement": "increase of fluorescence intensity of CFSE-labeled cells compared to control cells", "setting": "MCF7 cells; 10 μM, higher CFSE = less proliferation", "value": "50.6 ± 5.1", "unit": "%"}, {"measurement": "increase of relative CFSE fluorescence intensity, co-treatment with CLIK-148, LHVS, and compound 7 together", "setting": "MCF7 cells; compound 7 10 μM + CLIK-148 1 μM + LHVS 10 nM", "value": "46.1 ± 5.2", "unit": "%"}, {"measurement": "Cathepsin L Ki (µM)", "setting": "[4]", "value": "no inhibition and did not inhibit cathepsin L and n.i^f and n.i"}, {"measurement": "Cathepsin L Ki′ (µM)", "setting": "[4]", "value": "n.i^f"}, {"measurement": "mode of inhibition of cathepsin V", "setting": "Cathepsin V [5]", "value": "competitive"}, {"measurement": "Ki", "setting": "Cathepsin V [5]; mean ± SD (n = 2)", "value": "88.7 ± 10.2", "unit": "µM"}, {"measurement": "inhibition at 50 µM", "setting": "[6]", "value": "12.1 ± 1.8", "unit": "%"}, {"measurement": "inhibition at 50 µM", "setting": "Cathepsin V [7]", "value": "> 20", "unit": "%"}]}]}
